Experimental data from US10761087B2, “Choroidal neovascularization suppressor or drusen formation suppressor, and method for assessing or screening for same” (Link Genomics, Inc., priority 2015, dated 2020).
Entries after “also recorded” stand apart in the source; their conditions may differ. Read-outs that look alike come from different tables or passages of the source.

Experiments:
RPE cells (ARPE-19) = experiment: Focus (drusen-like structure) formation suppression in EMT induction model of RPE cells; format: cell-based, human; conditions: for IC50: Homo sapiens; for Suppression of drusen-like structure formed in the RPE cell model: FIG. 35 to 39
Description: RPE cells (ARPE-19) were seeded on a plate, and incubated for 5 days at 37° C. […] As a control of EMT induction, a sample to which a compound to be assessed (test drug) is not added was used. After 48 hours from EMT induction, the cells were fixed by treating with a 4% paraformaldehyde solution for 30 minutes at room temperature, and then washed three times with PBS. The cells were treated with a 0.2% Triton-X/PBS solution for 5 minutes, and washed three times with PBS. […] The fluorescent-stained cells were imaged by using an Image Express Micro (available from Molecular Devices), and digitized by using a MetaXpress2.0 (available from Molecular Devices). By analyzing the degree of formation of Focus (Focus level) from the numerical data, a Focus formation suppressing rate was calculated according to the following Formula 1 on the basis of the numerical value at the time of no addition of a compound, and the EMT suppressive effect in each compound was verified. The degree of formation of Focus (Focus level) was determined according to the number and the volume of Focus as indexes.
IC50 in the table was calculated using the following Formula 2.
A: Higher concentration sandwiching 50%
B: Lower concentration sandwiching 50%
C: Inhibition rate at lower concentration sandwiching 50%
D: Inhibition rate at higher concentration sandwiching 50%
RPE cells (ARPE-19) were seeded on a plate, and incubated for 5 days at 37° C. […] As a control of EMT induction, a sample to which a compound to be assessed (test drug) is not added was used. The cells after observation were fixed by treating with a 4% paraformaldehyde solution for 30 minutes at room temperature, and then washed three times with PBS. The cells were treated with a 0.2% Triton-X/PBS solution for 5 minutes, and washed three times with PBS. […] The fluorescent-stained cells were imaged by using an Image Express Micro (available from Molecular Devices), and digitized by using a MetaXpress2.0 (available from Molecular Devices). By analyzing the degree of formation of Focus from the numerical data, a Focus formation suppressing rate was calculated on the basis of the case without addition of a compound and the case without EMT induction, and the EMT suppressive effect in each compound was verified. […] After washing three times with methanol, the cells were dried for 3 hours at room temperature. The dried cells were observed under a microscope.

[1] = cited from earlier work
[2] = tested on: EMT markers (mesenchymal markers, ECM) in RPE cells (ARPE-19); experiment: Change in expression of EMT markers (real-time PCR) in EMT-induced RPE cells; format: cell-based, human; conditions: for EMT suppression (FIG. 3 to FIG. 7) / Expression of EMT markers other than the ten common markers / Expression of Snail, Slug, CDH3, MMP1, MMP7, COL5A3, COL6A3, LAMC2, HMMR, TNC / Enhancement of expression of Fibronectin, Snail and vimentin (mesenchymal markers): EMT-induced ARPE-19, 48 hours; for EMT suppression (FIG. 3 to FIG. 7) / Expression of EMT markers other than the ten common markers / Expression of Snail, Slug, CDH3, MMP1, MMP7, COL5A3, COL6A3, LAMC2, HMMR, TNC: oxaprozin 300 μM, epalrestat 30 μM, zafirlukast 3 μM, amlexanox 30 μM, zaltoprofen 30 μM; for Enhancement of expression of Fibronectin, Snail and vimentin (mesenchymal markers): compound at Cmax, ½ of Cmax or ¼ of Cmax; for Expression of EMT markers at the time of EMT induction (FIG. 8 to FIG. 12): flufenamic acid aluminum 28 μM, mefenamic acid 39 μm, sulindac 100 μM, tiaprofenic acid 1000 μM, seratrodast 31 μM
Description: RPE cells (ARPE-19) were seeded on a plate, and incubated for 5 days at 37° C. For the RPE cells, EMT was induced in the conditions described in Test example 1-1, and respective compounds (oxaprozin, epalrestat, zafirlukast, amlexanox, zaltoprofen) were added simultaneously, and the cells were collected after 48 hours from induction of EMT. As a control, a sample to which a compound to be assessed (test drug) is not added was used. The collected cells were washed with PBS, and 350 μL of an RLT buffer was added to prepare a lysate for RNA extraction. The respective compounds were used in the following concentrations. Oxaprozin: 300 μM, epalrestat: 30 μM, zafirlukast: 3 μM, amlexanox: 30 μM, zaltoprofen: 30 μM. Total RNA was extracted from the lysate using an RNeasy Micro kit (QIAGEN, #74004), and from 2 μg of the obtained RNA, cDNA was prepared using a SuperScript III First-Strand Synthesis SuperMix for qRT-PCR (Invitrogen, #11752-250). Using 50 ng of the obtained cDNA as a template, a real-time PCR (ABI Prism 7500 Sequence Detection System) was conducted according to the manufacturer's protocol, and expression of mRNA of each gene was quantified. Specific primers for respective genes were purchased from Invitrogen. Ct (Threshold Cycle) value of each gene was calculated as a percentage to a non-treated sample after normalization by endogenous control.
Five compounds (flufenamic acid aluminum (addition concentration: 28 μM (Cmax)), mefenamic acid (addition concentration: 39 μm (Cmax)), sulindac (addition concentration: 100 μM), tiaprofenic acid (addition concentration: 1000 μM), and seratrodast (addition concentration: 31 μM (Cmax))) were assessed for change in expression of EMT markers in the same manner as in Test example 2-1. The results are shown in FIG. 8 to FIG. 12, respectively.
(§1) RPE cells (ARPE-19) were seeded on a plate, and incubated for 5 days at 37° C. […] Each compound was added in a concentration of Cmax, ½ of Cmax or ¼ of Cmax. As a control, a sample to which a compound to be assessed (test drug) is not added was used. The collected cells were washed with PBS, and 350 μL of an RLT buffer was added to prepare a lysate for RNA extraction. Total RNA was extracted from the lysate using an RNeasy Micro kit (QIAGEN, #74004), and from 2 μg of the obtained RNA, cDNA was prepared using a SuperScript III First-Strand Synthesis SuperMix for qRT-PCR (Invitrogen, #11752-250). Using 50 ng of the obtained cDNA as a template, a real-time PCR (ABI Prism 7500 Sequence Detection System) was conducted according to the manufacturer's protocol, and expression of mRNA of each gene was quantified. Specific primers for respective genes were purchased from Invitrogen. Ct (Threshold Cycle) value of each gene was calculated as a percentage to a non-treated sample after normalization by endogenous control. For each result, a significant test (Student t test) was conducted, and when p<0.05, the result was marked with “*”, and when p<0.01, the result was marked with “**”.
RPE cells (ARPE-19) were seeded on a plate, and incubated for 5 days at 37° C. For the RPE cells, EMT was induced in the conditions described in Test example 5-1, and the five representative compounds (oxaprozin, epalrestat, zafirlukast, amlexanox, zaltoprofen) were added simultaneously, and the cells were collected after 48 hours from induction of EMT. As a control, a sample to which a compound to be assessed (test drug) is not added was used. The collected cells were washed with PBS, and 350 μL of an RLT buffer was added to prepare a lysate for RNA extraction. Total RNA was extracted from the lysate using an RNeasy Micro kit (QIAGEN, # 74004), and from 2 μg of the obtained RNA, cDNA was prepared using a SuperScript III First-Strand Synthesis SuperMix for qRT-PCR (Invitrogen, # 11752-250). […]

VEGF = experiment: Change in expression of VEGF mRNA (real-time PCR) in EMT-induced RPE cells; format: cell-based, human; conditions: EMT-induced ARPE-19, 48 hours, compound at Cmax, ½ of Cmax or ¼ of Cmax
Description: as §1
The results are shown in FIG. 16 or FIG. 17, respectively.
The VEGF suppressive effect was assessed using the cell model as described above in the same manner as in Test example 2-3. The results are shown in FIG. 18 to FIG. 20, respectively.

[3] = RPE, Table 2, same manner as Test example 6-1, read-out: IC50 (Focus formation suppressing rate, EMT suppressive effect)
[4] = Pharmaceutical Interview Form, single-dose administration, read-out: Cmax
[5] = quoted in Test examples 2-3, 2-4, 2-5, read-out: Cmax (as quoted in the VEGF test examples)
[6] = Table 1, EMT-induced ARPE-19, compound added simultaneously, 48 hours, read-out: IC50 (Focus formation suppressing rate, EMT suppressive effect)
[7] = Test example 7, EMT-induced ARPE-19, 48 hours, read-out: IC50 values in the drusen-like structure suppressing tests
[8] = Table 3, from the interview form and the package insert of each drug, read-out: Cmax

SMILES | IC50 (RPE cells (ARPE-19); [3]) | Cmax [1, 4] | Cmax [1, 5] | IC50 (RPE cells (ARPE-19); [6]) | Enhancement of expression of Fibronectin, Snail and vimentin (mesenchymal markers) [2] | Expression of EMT markers at the time of EMT induction (FIG. 8 to FIG. 12) [2] | Enhancement of VEGF mRNA expression by EMT induction (VEGF) | also measured
CC1=C(C)C(=O)C(C(CCCCCC(=O)O)c2ccccc2)=C(C)C1=O (centres unmarked) [Seratrodast, seratrodast] | 54.6 µM | 31 µM | 31 µM |  |  |  |  | 
COc1cc(C(=O)NS(=O)(=O)c2ccccc2C)ccc1Cc1cn(C)c2ccc(NC(=O)OC3CCCC3)cc12 [Zafirlukast, zafirlukast] |  | 0.8 µM |  | 3.8 µM |  |  |  | EMT suppression (FIG. 3 to FIG. 7) [2]: significantly suppress EMT; Expression of EMT markers other than the ten common markers [2]: decrease in expression was observed in MMP3, COL13A1, LAMB3, or CSPG4; Expression of Snail, Slug, CDH3, MMP1, MMP7, COL5A3, COL6A3, LAMC2, HMMR, TNC [2]: suppressed expression; Suppression of drusen-like structure formed in the RPE cell model (RPE cells (ARPE-19); EMT-induced ARPE-19, 48 hours): suppresses a drusen-like structure formed in the RPE cell model in a concentration-dependent manner; IC50 (RPE cells (ARPE-19); [7]): 3.8 µM; Cmax [1, 8]: 0.8 µM
O=C(O)c1ccccc1Nc1cccc(C(F)(F)F)c1 [flufenamic acid aluminum] | 4.4 µM | 27.9 µM | 27.9 µM |  | suppressed enhancement of expression of these in a concentration dependent manner | significantly suppress expression of EMT markers at the time of EMT induction; also recorded: lower expression of EMT markers at the time of EMT induction | suppress enhancement of mRNA expression of VEGF | Enhancement of VEGF mRNA expression by EMT induction (VEGF; listed as Flufenamic acid aluminum): suppressed enhancement of VEGF expression in a concentration dependent manner
CC(C)c1ccc2oc3nc(N)c(C(=O)O)cc3c(=O)c2c1 [Amlexanox, amlexanox] |  | 16 µM |  | 32.5 µM |  |  |  | EMT suppression (FIG. 3 to FIG. 7) [2]: significantly suppress EMT; Expression of EMT markers other than the ten common markers [2]: decrease in expression was observed in ZEB2, CDH2, MMP3, COL1A1, and COL13A1; Expression of Snail, Slug, CDH3, MMP1, MMP7, COL5A3, COL6A3, LAMC2, HMMR, TNC [2]: suppressed expression; Suppression of drusen-like structure formed in the RPE cell model (RPE cells (ARPE-19); EMT-induced ARPE-19, 48 hours): suppresses a drusen-like structure formed in the RPE cell model in a concentration-dependent manner; IC50 (RPE cells (ARPE-19); [7]): 32.5 µM; Cmax [1, 8]: 16 µM
COc1ccc2c(c1)c(CC(=O)O)c(C)n2C(=O)c1ccc(Cl)cc1 [indomethacin] |  |  | 2.79 µM |  | did not suppress enhancement of expression of these |  | did not suppress enhancement of VEGF expression | 
CC(C(=O)O)c1ccc(C(=O)c2ccccc2)s1 (centres unmarked) [Tiaprofenic acid, tiaprofenic acid] | 374 µM | 69.2 µM |  |  |  | significantly suppress expression of EMT markers at the time of EMT induction; also recorded: lower expression of EMT markers at the time of EMT induction |  | 
CCc1cccc2c3c([nH]c12)C(CC)(CC(=O)O)OCC3 (centres unmarked) [Etodolac, etodolac] |  |  | 42.5 µM |  | did not suppress enhancement of expression of these |  | did not suppress enhancement of VEGF expression | 
CC(C(=O)O)c1ccc(-c2ccccc2)c(F)c1 (centres unmarked) [Flurbiprofen, flurbiprofen] |  |  |  | 32.6 µM |  |  |  | 
CC(C)Cc1ccc(C(C)C(=O)O)cc1 (centres unmarked) [Ibuprofen, ibuprofen] |  |  |  | 18 µM |  |  |  | 
Cc1cccc(Nc2ccccc2C(=O)O)c1C [Mefenamic acid, mefenamic acid] | 12.4 µM | 38.5 µM | 38.5 µM |  | suppressed enhancement of expression of these in a concentration dependent manner | significantly suppress expression of EMT markers at the time of EMT induction; also recorded: lower expression of EMT markers at the time of EMT induction | suppressed enhancement of VEGF expression in a concentration dependent manner | Enhancement of VEGF mRNA expression by EMT induction (VEGF; listed as mefenamic acid): suppress enhancement of mRNA expression of VEGF
O=C(Nc1cccc2c(=O)cc(-c3nnn[nH]3)oc12)c1ccc(OCCCCc2ccccc2)cc1 [Pranlukast, pranlukast] |  |  |  | 1.1 µM |  |  |  | 
CC(/C=C1\SC(=S)N(CC(=O)O)C1=O)=C\c1ccccc1 [Epalrestat, epalrestat] |  | 12.2 µM | 12.2 µM | 16.9 µM |  |  |  | IC50 (RPE cells (ARPE-19); [7]): 16.9 µM; Cmax [1, 8]: 12.2 µM
CC1=C(CC(=O)O)c2cc(F)ccc2/C1=C\c1ccc([S+](C)[O-])cc1 (centres unmarked) [Sulindac, sulindac] | 35.3 µM | 10.1 µM |  |  |  | significantly suppress expression of EMT markers at the time of EMT induction; also recorded: lower expression of EMT markers at the time of EMT induction |  | 
